Laboratory results published in US20120324604A1, “PESTICIDAL MIXTURES CONTAINING ISOXAZOLINE DERIVATIVES AND A FUNGICIDE” (priority 2010, published 2012).
“And” between values parts separate entries of the source, which are not always exact repeats. Identical values can stand only once.

Key:
Type in all cases: cell-based
Gaeumannomyces graminis = Gaeumannomyces graminis growth inhibition, microtiter plate, photometric
Description: Mycelial fragments of the fungus from cryogenic storage were directly mixed into nutrient broth (potato dextrose broth). After placing a (DMSO) solution of the test compounds into a microliter plate (96-well format) the nutrient broth containing the fungal spores was added.

[1] = tested on: Mycosphaerella arachidis (syn. Cercospora arachidicola); assay: Mycosphaerella arachidis (Brown Leaf Spot of Groundnut) growth inhibition, microtiter plate, photometric; details: alone
Description: Mycosphaerella arachidis (syn. Cercospora arachidicola), Brown Leaf Spot of Groundnut (Peanut):
(§1) Conidia of the fungus from cryogenic storage were directly mixed into nutrient broth (potato dextrose broth). After placing a (DMSO) solution of the test compounds into a microtiter plate (96-well format) the nutrient broth containing the fungal spores was added.

Septoria tritici = Septoria tritici (Leaf Blotch) growth inhibition, microtiter plate, photometric
Description: Septoria tritici (Leaf Blotch):
as §1

Rhizoctonia solani = Rhizoctonia solani (Foot Rot, Damping-Off) growth inhibition, microtiter plate, photometric
Description: Rhizoctonia solani (Foot Rot, Damping-Off):
Mycelial fragments of the fungus from cryogenic storage were directly mixed into nutrient broth (potato dextrose broth). After placing a (DMSO) solution of the test compounds into a microtiter plate (96-well format) the nutrient broth containing the fungal spores was added.

Pythium ultimum = Pythium ultimum (Damping Off) growth inhibition, microtiter plate, photometric
Description: Pythium ultimum (Damping Off):
Mycelial fragments of the fungus, prepared from a fresh liquid culture, were directly mixed into nutrient broth (potato dextrose broth). After placing a (DMSO) solution of the test compounds into a microtiter plate (96-well format) the nutrient broth containing the fungal spores was added.

[2] = tested on: Glomerella lagenarium (syn. Colletotrichum lagenarium); assay: Glomerella lagenarium (Anthracnose of Cucurbits) growth inhibition, microtiter plate, photometric; details: alone
Description: Glomerella lagenarium (syn. Colletotrichum lagenarium), Anthracnose of Cucurbits:
as §1

Fusarium culmorum = Fusarium culmorum (Root Rot) growth inhibition, microtiter plate, photometric
Description: Fusarium culmorum (Root Rot):
as §1

Botrvtis cinerea = Botrvtis cinerea (Gray Mould) growth inhibition, microtiter plate, photometric; details: alone
Description: Botrvtis cinerea (Gray Mould):
as §1

[3] = single compound at 0.0625 ppm AI
[4] = single compound at 0.125 ppm AI

CO/C=C(/C(=O)OC)c1ccccc1Oc1cc(Oc2ccccc2C#N)ncn1 [Azoxystrobin, reference compound]
50%: AVERAGE DEAD IN % (Gaeumannomyces graminis; applied alone, 0.5 ppm AI) | AVERAGE DEAD IN % (Gaeumannomyces graminis; applied alone, 1 ppm AI) | AVERAGE DEAD IN % (Gaeumannomyces graminis; applied alone, 2 ppm AI) | AVERAGE DEAD IN % (Gaeumannomyces graminis; [3]) | AVERAGE DEAD IN % (Septoria tritici; 0.03125 ppm AI, alone) | AVERAGE DEAD IN % (Septoria tritici; alone, 0.03125 ppm AI) | AVERAGE DEAD IN % ([2]; 0.03125 ppm AI)
90%: AVERAGE DEAD IN % (Gaeumannomyces graminis; single compound at 0.5 ppm AI) | AVERAGE DEAD IN % (Gaeumannomyces graminis; single compound at 1 ppm AI) | AVERAGE DEAD IN % (Gaeumannomyces graminis; single compound at 2 ppm AI) | AVERAGE DEAD IN % ([1]; 0.125 ppm AI) | AVERAGE DEAD IN % ([1]; 0.0625 PPM AI) | AVERAGE DEAD IN % (Septoria tritici; 0.125 ppm AI, alone) | AVERAGE DEAD IN % Azoxystrobin (Septoria tritici; Azoxystrobin alone, 0.125 ppm AI) | AVERAGE DEAD IN % (Septoria tritici; alone, 0.125 ppm AI)
20%: AVERAGE DEAD IN % (Gaeumannomyces graminis; applied alone, 0.125 ppm AI) | AVERAGE DEAD IN % (Gaeumannomyces graminis; applied alone, 0.25 ppm AI) | AVERAGE DEAD IN % (Gaeumannomyces graminis; single compound at 0.00390625 ppm AI) | AVERAGE DEAD IN % ([1]; 0.015625 PPM AI) | AVERAGE DEAD IN % (Septoria tritici; 0.015625 ppm AI, alone) | AVERAGE DEAD IN % Azoxystrobin (Septoria tritici; Azoxystrobin alone, 0.015625 ppm AI) | AVERAGE DEAD IN % (Septoria tritici; alone, 0.015625 ppm AI) | AVERAGE DEAD IN % (Rhizoctonia solani; applied alone, 0.125 ppm AI) | AVERAGE DEAD IN % (Rhizoctonia solani; applied alone, 0.25 ppm AI) | AVERAGE DEAD IN % (Rhizoctonia solani; applied alone, 0.5 ppm AI) | AVERAGE DEAD IN % (Rhizoctonia solani; applied alone, 1 ppm AI) | AVERAGE DEAD IN % (Rhizoctonia solani; applied alone, 2 ppm AI) | AVERAGE DEAD IN % (Rhizoctonia solani; [3]) | AVERAGE DEAD IN % (Rhizoctonia solani; [4]) | AVERAGE DEAD IN % (Rhizoctonia solani; single compound at 0.25 ppm AI) | AVERAGE DEAD IN % (Rhizoctonia solani; single compound at 0.5 ppm AI) | AVERAGE DEAD IN % (Rhizoctonia solani; single compound at 1 ppm AI) | AVERAGE DEAD IN % (Rhizoctonia solani; single compound at 2 ppm AI) | AVERAGE DEAD IN % ([2]; 0.015625 ppm AI) | AVERAGE DEAD IN % (Fusarium culmorum; alone, 1 PPM AI) | AVERAGE DEAD IN % (Fusarium culmorum; alone, 2 PPM AI)
100% and 50%: AVERAGE DEAD IN % (Gaeumannomyces graminis; single compound at 0.03125 ppm AI)
70% and 50%: AVERAGE DEAD IN % ([1]; 0.0625 ppm AI)
70%: AVERAGE DEAD IN % (Gaeumannomyces graminis; [4]) | AVERAGE DEAD IN % (Gaeumannomyces graminis; single compound at 0.25 ppm AI) | AVERAGE DEAD IN % (Septoria tritici; 0.0625 ppm AI, alone) | AVERAGE DEAD IN % Azoxystrobin (Septoria tritici; Azoxystrobin alone, 0.0625 ppm AI) | AVERAGE DEAD IN % (Septoria tritici; alone, 0.0625 ppm AI)
90% and 50%: AVERAGE DEAD IN % (Gaeumannomyces graminis; single compound at 0.015625 ppm AI)
0%: AVERAGE DEAD IN % (Gaeumannomyces graminis; applied alone, 0.00390625 ppm AI) | AVERAGE DEAD IN % (Gaeumannomyces graminis; applied alone, 0.0078125 ppm AI) | AVERAGE DEAD IN % (Gaeumannomyces graminis; applied alone, 0.015625 ppm AI) | AVERAGE DEAD IN % (Gaeumannomyces graminis; applied alone, 0.03125 ppm AI) | AVERAGE DEAD IN % (Gaeumannomyces graminis; applied alone, 0.0625 ppm AI) | AVERAGE DEAD IN % ([1]; 0.0078125 ppm AI) | AVERAGE DEAD IN % ([1]; 0.015625 ppm AI) | AVERAGE DEAD IN % ([1]; 0.0078125 PPM AI) | AVERAGE DEAD IN % (Septoria tritici; alone, 0.0078125 ppm AI) | AVERAGE DEAD IN % (Pythium ultimum; [4]) | AVERAGE DEAD IN % ([2]; 0.0078125 ppm AI) | AVERAGE DEAD IN % (Fusarium culmorum; alone, 0.5 PPM AI)
50% and 70%: AVERAGE DEAD IN % ([1]; 0.03125 PPM AI)

COC(c1ccc(Cl)cc1Cl)C(C)NC(=O)c1cn(C)nc1C(F)F (centres unmarked) [COMPOUND IV]
70%: AVERAGE DEAD IN % (Botrvtis cinerea; 0.5 ppm AI)
90% and 100%: AVERAGE DEAD IN % COMPOUND IV (Septoria tritici; COMPOUND IV alone, 0.5 ppm AI)
90%: AVERAGE DEAD IN % ([1]; 0.125 ppm AI) | AVERAGE DEAD IN % ([1]; 0.125 PPM AI) | AVERAGE DEAD IN % (Septoria tritici; 0.25 ppm AI, alone) | AVERAGE DEAD IN % (Botrvtis cinerea; 1 ppm AI)
70% and 90%: AVERAGE DEAD IN % COMPOUND IV (Septoria tritici; COMPOUND IV alone, 0.25 ppm AI)
0%: AVERAGE DEAD IN % (Gaeumannomyces graminis; single compound at 0.25 ppm AI) | AVERAGE DEAD IN % (Gaeumannomyces graminis; single compound at 0.5 ppm AI) | AVERAGE DEAD IN % (Gaeumannomyces graminis; single compound at 1 ppm AI) | AVERAGE DEAD IN % (Botrvtis cinerea; 0.03125 ppm AI) | AVERAGE DEAD IN % (Fusarium culmorum; single compound, 0.5 PPM AI, 48 hrs, 24° C.)
50%: AVERAGE DEAD IN % (Botrvtis cinerea; 0.25 ppm AI) | AVERAGE DEAD IN % (Fusarium culmorum; alone, 2 PPM AI) | AVERAGE DEAD IN % (Fusarium culmorum; single compound, 2 PPM AI, 48 hrs, 24° C.)
20%: AVERAGE DEAD IN % ([1]; 0.0625 ppm AI) | AVERAGE DEAD IN % (Septoria tritici; 0.125 ppm AI, alone) | AVERAGE DEAD IN % (Botrvtis cinerea; 0.0625 ppm AI) | AVERAGE DEAD IN % (Botrvtis cinerea; 0.125 ppm AI) | AVERAGE DEAD IN % (Fusarium culmorum; alone, 1 PPM AI) | AVERAGE DEAD IN % (Fusarium culmorum; single compound, 1 PPM AI, 48 hrs, 24° C.)

N#Cc1c(Cl)c(Cl)c(Cl)c(C#N)c1Cl [Chlorothalonil, reference compound]
50% and 100% and 90%: AVERAGE DEAD IN % (Gaeumannomyces graminis; single compound at 1 ppm AI)
90%: AVERAGE DEAD IN % (Rhizoctonia solani; applied alone, 1 ppm AI)
70%: AVERAGE DEAD IN % ([1]; 0.5 ppm AI) | AVERAGE DEAD IN % Chlorothalonil (Septoria tritici; Chlorothalonil alone, 0.0625 ppm AI) | AVERAGE DEAD IN % (Septoria tritici; alone, 1 ppm AI) | AVERAGE DEAD IN % (Rhizoctonia solani; applied alone, 0.5 ppm AI) | AVERAGE DEAD IN % ([2]; 0.5 ppm AI)
50%: AVERAGE DEAD IN % (Septoria tritici; 0.5 ppm AI, alone)
0%: AVERAGE DEAD IN % (Gaeumannomyces graminis; single compound at 0.25 ppm AI) | AVERAGE DEAD IN % (Septoria tritici; 0.25 ppm AI, alone) | AVERAGE DEAD IN % Chlorothalonil (Septoria tritici; Chlorothalonil alone, 0.03125 ppm AI) | AVERAGE DEAD IN % (Rhizoctonia solani; single compound at 1 ppm AI) | AVERAGE DEAD IN % (Rhizoctonia solani; single compound at 2 ppm AI) | AVERAGE DEAD IN % (Pythium ultimum; single compound at 0.25 ppm AI) | AVERAGE DEAD IN % (Pythium ultimum; single compound at 0.5 ppm AI) | AVERAGE DEAD IN % (Pythium ultimum; single compound at 1 ppm AI) | AVERAGE DEAD IN % (Fusarium culmorum; alone, 0.5 PPM AI)
50% and 90%: AVERAGE DEAD IN % ([2]; 0.25 ppm AI)
100% and 70%: AVERAGE DEAD IN % ([1]; 0.5 PPM AI)
20%: AVERAGE DEAD IN % ([1]; 0.125 ppm AI) | AVERAGE DEAD IN % ([1]; 0.25 PPM AI) | AVERAGE DEAD IN % Chlorothalonil (Septoria tritici; Chlorothalonil alone, 0.25 ppm AI)
90% and 100%: AVERAGE DEAD IN % (Gaeumannomyces graminis; single compound at 2 ppm AI)
